Literature values, collected in publication PMC5328943 (International journal of pharmaceutics, 2017).
In brackets after ≈: the same amount, converted by molar mass.

Settings: with TPGS; ref Yu et al., 1999

CC(C)CN(C[C@@H](O)[C@H](Cc1ccccc1)NC(=O)O[C@H]1CCOC1)S(=O)(=O)c1ccc(N)cc1 [amprenavir]
solubility in water: 720 µg/mL (≈ 1420 µM)
